Experimental data reported in patent US20240041859A1, “METHODS OF TREATING AND PREVENTING KIDNEY DISEASE” (Washington University, priority 2020, published 2024).

Legend:
pkd1-null (WT9-12) cells = experiment: centrosome clustering inhibitors on ADPKD cell line; assay type: cell-based; conditions: for mitotic progression / spindle assembly checkpoint (SAC) and cell death of cells with CA: cells with CA; for centrosome clustering in cells with CA: pkd1-null (WT9-12) cells
Description: (§1) Since this approach worked in ADPKD cells, mouse models were subsequently used to test the efficacy of the inhibitors in vivo.

wild-type (HK2) cells = experiment: centrosome clustering inhibitors on wild-type cells; assay type: cell-based
Description: as §1

PKD1^RC/RC mice [1] = experiment: slow-onset ADPKD mouse model, five-month treatment from six months of age; assay type: in vivo
Description: To test the inhibitors, a slow-onset mouse model of ADPKD was needed that would allow for an extended period of time to treat these mice with the centrosome clustering inhibitors. The widely used slow-onset ADPKD model called the PKD1^RC/RC mouse (Hopp et al, JCI, 2012) was chosen for the small molecule inhibitor tests. These mice develop cysts slowly, such that kidney size increases around 6 months of age, and kidney function declines—as indicated by elevated blood-urea nitrogen (BUN) levels—around 9 months of age. The mice also show extensive cystogenesis as they age. […] Thus, this model was ideal for testing the centrosome clustering inhibitors. Using the slow-onset ADPKD model, the optimal effective time-course for inhibition of centrosome clustering using CCB02 and PJ-34 can be determined. Example 1 describes treatment at timepoints (e.g., beginning at six months of age, beginning at nine months, and up to eleven months of age) and for periods of time (e.g., every other day for sixty days or two months, every two days for five months). PKD1^RC/RC mice were treated with the inhibitors beginning at six months of age—at a stage when their kidneys have yet to dramatically increase in size and show functional decline (see e.g., FIG. 8). Centrosome clustering inhibitor CCB02 was administered by gavage every two days for a total of five months. Also included in the analysis was the only FDA-approved drug for ADPKD, tolvaptan. […] Blood and urine were collected at one-month intervals to monitor kidney function (see e.g., FIG. 8).

PKD1^RC/RC mice [2] = experiment: slow-onset ADPKD mouse model, sixty-day treatment followed by three-month washout; assay type: in vivo
Description: To test the inhibitors, a slow-onset mouse model of ADPKD was needed that would allow for an extended period of time to treat these mice with the centrosome clustering inhibitors. The widely used slow-onset ADPKD model called the PKD1^RC/RC mouse (Hopp et al, JCI, 2012) was chosen for the small molecule inhibitor tests. These mice develop cysts slowly, such that kidney size increases around 6 months of age, and kidney function declines—as indicated by elevated blood-urea nitrogen (BUN) levels—around 9 months of age. The mice also show extensive cystogenesis as they age. […] Thus, this model was ideal for testing the centrosome clustering inhibitors. Using the slow-onset ADPKD model, the optimal effective time-course for inhibition of centrosome clustering using CCB02 and PJ-34 can be determined. Example 1 describes treatment at timepoints (e.g., beginning at six months of age, beginning at nine months, and up to eleven months of age) and for periods of time (e.g., every other day for sixty days or two months, every two days for five months). […] PKD1^RC/RC mice were administered centrosome clustering inhibitor CCB02 beginning at nine months and up to eleven months of age (see e.g., FIG. 12A). CCB02 was administered by gavage every other day for sixty days (see e.g., FIG. 8). The treatment was arrested for three months, and animals were monitored for three additional months to determine if cysts returned once the compounds are no longer administered.

CPAP-tubulin interaction = conditions: binding to tubulin, competing for the CPAP binding site of P-tubulin; cited from earlier work
[3] = annually; cited from earlier work
[4] = five months treatment vs two-month scheme

Row | SMILES | mitotic progression (pkd1-null (WT9-12) cells) | spindle assembly checkpoint (SAC) and cell death of cells with CA (pkd1-null (WT9-12) cells) | centrosome clustering in cells with CA (pkd1-null (WT9-12) cells) | normal mitotic spindle formation in cells with normal centrosome number (wild-type (HK2) cells) | cyst formation (PKD1^RC/RC mice [1]; five months treatment) | fibrosis markers (PKD1^RC/RC mice [1]; five months treatment) | effect on cystogenesis (PKD1^RC/RC mice [1]; [4]) | effect on renal fibrosis (PKD1^RC/RC mice [1]; [4]) | cyst formation at eleven months (PKD1^RC/RC mice [2]; gavage every other day for sixty days, compared to untreated mice) | BUN (PKD1^RC/RC mice [2]; three months post-washout) | cyst re-formation (PKD1^RC/RC mice [2]; three months post-washout) | fibrosis (PKD1^RC/RC mice [2]; three months post-washout) | serum creatinine (PKD1^RC/RC mice [2]; three months post-washout) | IC50 (CPAP-tubulin interaction) [nM] | reduction of the rate of decline in renal function [3]
1 | COc1ncc2cc3ccccc3nc2c1C#N [CCB02] | delay in mitotic progression | activation of the spindle assembly checkpoint (SAC), leading to cell death | inhibited centrosome clustering | not impacting normal mitotic spindle formation | better results in comparison to the FDA-approved drug tolvaptan | significant reduction in fibrosis markers | even greater effect on cystogenesis | even greater effect on renal fibrosis | reduction in cyst formation | no increase | cysts did not reform | fibrosis was not evident | no increase | 689 | 
2 | CN(C)CC(=O)Nc1ccc2[nH]c(=O)c3ccccc3c2c1.Cl [PJ-34] | delay in mitotic progression | activation of the spindle assembly checkpoint (SAC), leading to cell death | inhibited centrosome clustering | not impacting normal mitotic spindle formation |  |  |  |  |  |  |  |  |  |  | 
3 | Cc1ccccc1C(=O)Nc1ccc(C(=O)N2CCCC(O)c3cc(Cl)ccc32)c(C)c1 (centres unmarked) [tolvaptan] |  |  |  |  |  | significant reduction in fibrosis markers |  |  |  |  |  |  |  |  | 2%-3%
